Measurements: patent US20230108442A1, “NOVEL ANTIMALARIAL AGENT CONTAINING HETEROCYCLIC COMPOUND” (Eisai R&D Management Co., Ltd., priority 2020, published 2023)
Where “and” joins values, the source holds several entries; their conditions need not be identical. Identical values can stand only once.

Key:
[1] = test system: Plasmodium falciparum strain 3D7 (chloroquine-sensitive); experiment: in vitro drug susceptibility test, parasite lactate dehydrogenase detection, strain 3D7; type: cell-based; conditions: 72 hours incubation, pLDH absorbance at 660 nm, read-out: Pf_3D7 IC50
Method: (§1) Plasmodium falciparum strain 3D7 (chloroquine-sensitive) and K1 (chloroquine-resistant) were obtained from Kitasato University and used for testing antimalarial activities in vitro. The cultivation of P. falciparum was conducted according to Trager's method (Trager, W and Jensen and J., Human malaria parasites in continuous culture. Science, 193:673-677, 1976) with some modification. Precisely, parasites were kept in culture flasks with RPMI1640 medium supplemented with 10% human plasma and 2% fresh human erythrocytes and incubated at 37° C. with the gas condition of 5% CO2 and 5% 02. The parasitemia (percentage of infected erythrocytes to total erythrocytes) were kept within 0.25-10%. Culture medium were replaced and fresh erythrocytes were supplied every 2-3 days. Drug susceptibility test was conducted according to Desjardins's method (Desjardins, R. E., Canfield, C. J., Haynes, D. E. and Chulay, J. D., Quantitative assessment of antimalarial activity in vitro by a semiautomated microdilution technique. Antimicrob. Agents Chemother., 16:710-718, 1979) with some modification. The compounds I to IX and known antimalarial agents (chloroquine and artemisinin) were tested at the same time. Precisely, 199 micro L of parasite cultures (2% hematocrit and 0.75-1% parasitemia) and 1 micro L of compound solution serially diluted in DMSO were poured into every well in 96-well titer plates and final drug concentrations were set within 0.001-1 micro g/mL. The plates were kept at 37° C. with the gas condition of 5% CO2 and 5% O2 for 72 hours and then parasite growth was quantified with Makler's method to detect plasmodial lactate dehydrogenase (Makler, M. T., Rise, J. M., Williams, J. A., Bancroft, J. E., Piper, R. C., Gibbins, B. L. and Hinrichs, D. J., Parasite lactate dehydrogenase as an Assay for Plasmodium falciparum drug sensitivity. Am. J. Med. Hyg., 48:739-741, 1993) with some modification. Precisely, culture plate was kept in freezer overnight and then thawed at 37° C. to disrupt the erythrocytes and parasite cells. In the new 96-well titer plates, 100 micro L of enzyme reaction solution (110 mM Li-lactate, 0.5 mM acetylpyridine-adenine dinucleotide, 50 mM Tris (pH 7.5), 10 mM EDTA, 50 mM KCl and 15 g/L PEG6000) and 20 micro L of freeze-thaw culture were mixed in each well and then kept at room temperature for 30 minutes. The detection solution was prepared by mixing equal volume of 2 mg/mL nitro blue tetrazolium and 0.1 mg/mL phenazine ethosulfate and 20 micro L of the solution was added to each well. After the incubation at room temperature in the dark for 90 minutes, absorbance at 660 nm was analysed and IC50s were calculated from dose response curve.

[2] = test system: Plasmodium falciparum strain K1 (chloroquine-resistant); experiment: in vitro drug susceptibility test, parasite lactate dehydrogenase detection, strain K1; type: cell-based; conditions: 72 hours incubation, pLDH absorbance at 660 nm, read-out: Pf_K1 IC50
Method: as §1

[3] = test system: Plasmodium falciparum Pf3D70087/N9; experiment: humanized murine malaria model, parasitemia by flow cytometry; type: in vivo; conditions: oral, once daily for three days (I, V) or four days (II), start 72 h post infection, read seven days post infection
Method: The following pharmacological tests in the humanized murine malaria model were conducted using the compounds I, II and V at The Art of Discovery S.L. (Bizkaia, Spain). Briefly, mice engrafted with human erythrocytes were intravenously infected with parasitized red blood cells 72 h before drug treatment inception. The effect of treatment on parasitemia was assessed by measuring the percentage of infected erythrocytes in peripheral blood.
Plasmodium falciparum Pf3D70087/N9, the parasite strain used in this experiment, was described in reference (1). Immunodeficient female NSG (NOD-scid IL-2Rγnull) mice were engrafted with human erythrocytes to have a minimum of 40% of human erythrocytes circulating in peripheral blood during the whole experiment. Each mouse was intraperitoneally (i.p.) or intravenously (i.v.) inoculated with 1 mL (i.p.) or 0.7 mL (i.v.) of 50%-75% hematocrit erythrocyte suspension in RPMI1640 medium, 25% (vol/vol) decomplemented human serum, 3.1 mM hypoxanthine. Then humanized NSG mice were infected with peripheral blood from donor mice by intravenous injection of 0.3 mL of 1.17×10^8 parasitized-erythrocytes per ml suspension. Drug treatment was started after 72-h post infection. In the treatment, 10 ml/kg of compound solution were orally administered to each mouse, once daily for three or four days (three days for compounds I and V, four days for compound II, respectively). An analysis of the parasite population in peripheral blood was performed by flow cytometry as shown in reference (2) and the outcome was shown as the parasitemia expressed as the % of parasitized erythrocytes to the total erythrocytes in peripheral blood. Briefly, serial 2 micro L blood samples of peripheral blood from infected mice were stained with TER-119-Phycoerythrine (marker of murine erythrocytes) and SYTO-16 (nucleic acid dye) and then analyzed by flow cytometry. The therapeutic efficacies were expressed as ED90, the daily doses that reduce by 90% parasitemia to untreated control animals after seven days post infection.

SMILES	IC50 [1]	IC50 [2]	ED90, daily dose that reduces parasitemia by 90% to untreated control animals [3]
Cc1nn(C(F)F)cc1-c1cc(C(=O)NCc2ccc(O[C@H](C)C(F)(F)F)cc2)c(N)nc1N [III, (R)-2,6-diamino-5-(1-(difluoromethyl)-3-methyl-1H-pyrazol-4-yl)-N-(4-((1,1,1-trifluoropropan-2-yl)oxy)benzyl)nicotinamide]	0.078 µg/mL and 162 nM	0.121 µg/mL and 249 nM	–
Nc1nc(N)c(-n2cnc(C(F)(F)F)n2)cc1C(=O)NCc1ccc(OCC(F)(F)F)cc1 [IV, 2,6-diamino-N-(4-(2,2,2-trifluoroethoxy)benzyl)-5-(3-(trifluoromethyl)-1H-1,2,4-triazol-1-yl)nicotinamide]	0.125 µM	0.031 µg/mL and 171 nM	–
Nc1nc(N)c(-c2cnn(C(F)F)c2)cc1C(=O)NCc1ccc(OCC(F)(F)F)cc1F [IX, 2,6-diamino-5-(1-(difluoromethyl)-1H-pyrazol-4-yl)-N-(2-fluoro-4-(2,2,2-trifluoroethoxy)benzyl)nicotinamide]	0.05 µg/mL and 113 nM	0.083 µg/mL and 160 nM	–
C[C@@H](Oc1ccc(CNC(=O)c2cc(-n3cnc(C(F)F)n3)c(N)nc2N)cc1)C(F)(F)F [V, (R)-2,6-diamino-5-(3-(difluoromethyl)-1H-1,2,4-triazol-1-yl)-N-(4-((1,1,1-trifluoropropan-2-yl)oxy)benzyl)nicotinamide]	0.047 µg/mL and 99 nM	0.075 µg/mL and 160 nM	6.2 mg/kg/day
C[C@@H](Oc1ccc(CNC(=O)c2cc(-n3cnc(CC(F)(F)F)n3)c(N)nc2N)cc1)C(F)(F)F [VI, (R)-2,6-diamino-5-(3-(2,2,2-trifluoroethyl)-1H-1,2,4-triazol-1-yl)-N-(4-((1,1,1-trifluoropropan-2-yl)oxy)benzyl)nicotinamide]	0.024 µg/mL and 48 nM	0.038 µg/mL and 75 nM	–
Nc1nc(N)c(-n2cnc(C3(C(F)(F)F)CC3)n2)cc1C(=O)NCc1ccc(OCC(F)(F)F)cc1 [VII, 2,6-diamino-N-(4-(2,2,2-trifluoroethoxy)benzyl)-5-(3-(1-(trifluoromethyl)cyclopropyl)-1H-1,2,4-triazol-1-yl)nicotinamide]	0.016 µg/mL and 30 nM	0.021 µg/mL and 41 nM	–
C[C@@H](Oc1ccc(CNC(=O)c2cc(-n3cnc(C4(F)CC4)n3)c(N)nc2N)cc1)C(F)(F)F [VIII, (R)-2,6-diamino-5-(3-(1-fluorocyclopropyl)-1H-1,2,4-triazol-1-yl)-N-(4-((1,1,1-trifluoropropan-2-yl)oxy)benzyl)nicotinamide]	0.02 µg/mL and 54 nM	0.031 µg/mL and 64 nM	–
C[C@@H](Oc1ccc(CNC(=O)c2cc(-n3cnc(C(F)(F)F)n3)c(N)nc2N)cc1)C(F)(F)F [compound I, (R)-2,6-diamino-5-(3-(trifluoromethyl)-1H-1,2,4-triazol-1-yl)-N-(4-((1,1,1-trifluoropropan-2-yl)oxy)benzyl)nicotinamide]	0.026 µg/mL	0.043 µg/mL and 30 nM	3.2 mg/kg/day
C[C@@H](Oc1ccc(CNC(=O)c2cc(-c3cnn(C(F)F)c3)c(N)nc2N)cc1)C(F)(F)F [compound II, (R)-2,6-diamino-5-(1-(difluoromethyl)-1H-pyrazol-4-yl)-N-(4-((1,1,1-trifluoropropan-2-yl)oxy)benzyl)nicotinamide]	0.02 µg/mL and 42 nM	0.025 µg/mL and 53 nM	5.0 mg/kg/day
